From patent US20090156646A1, “PYRIDYLPHENOL COMPOUND AND USE THEREOF” (TAKEDA PHARMACEUTICAL COMPANY LIMITED, priority 2005, published 2009)

Key:
[1] = target: T1, human metastin receptor hOT7T175 (Homo sapiens, UniProt Q969F8, L364H); test: binding inhibiting activity: 125I-metastin (40-54) binding to cell membrane fraction of h175 KB34 cells; details: room temperature 60 minutes, read-out: binding inhibiting activity, represented by the IC50 value
T1 construct: encoding the entire length of human metastin receptor hOT7T175; expressed in transfected cells; host or cells: CHO/dhFr- cells (ATCC #CRL-9096) stably transfected with pAKKO-hOT7T175; clone h175-16 was used as whole cells for FLIPR
Procedure, shortened: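 Membranes came from CHO/dhfr− cells stably expressing human hOT7T175 (clone h175 KB34) and were diluted 250-fold for use. Binding of 125I-metastin (40-54) was run in 20 mM Tris, 2.5 mM magnesium acetate and 2 mM EGTA, pH 7.4, with protease inhibitors, either without BSA or with 1 mg/ml BSA.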

T1 sequence (Q969F8 whole entry L364H): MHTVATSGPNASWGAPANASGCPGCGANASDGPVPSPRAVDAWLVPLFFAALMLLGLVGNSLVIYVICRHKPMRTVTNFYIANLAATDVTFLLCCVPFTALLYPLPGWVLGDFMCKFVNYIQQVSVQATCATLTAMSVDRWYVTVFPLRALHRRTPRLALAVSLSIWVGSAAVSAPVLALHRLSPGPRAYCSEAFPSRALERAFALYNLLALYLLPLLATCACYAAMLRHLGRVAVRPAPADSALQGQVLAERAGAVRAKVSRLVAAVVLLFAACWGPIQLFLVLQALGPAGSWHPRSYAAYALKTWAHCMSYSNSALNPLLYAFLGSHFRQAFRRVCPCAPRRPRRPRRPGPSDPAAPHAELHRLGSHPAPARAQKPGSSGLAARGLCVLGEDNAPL

IC50 [1] [µM] | melting point [°C] | Compound
≤ 10 | 144 to 151 | N#Cc1c(-c2cccc(CNC(=N)N)c2)cc(-c2ccccc2O)nc1NC(=O)c1cccs1.O=C(O)C(F)(F)F [Example 45, N-{4-[3-({[amino(imino)methyl]amino}methyl)phenyl]-3-cyano-6-(2-hydroxyphenyl)pyridin-2-yl}thiophene-2-carboxamide trifluoroacetate]
≤ 10 | 204 to 210 | Cc1ccc(-c2cc(-c3cccc(NC(=O)CCN)c3)c(C#N)c(NC(=O)c3cccs3)n2)c(O)c1.Cl [Example 57, N-{4-[3-(β-alanylamino)phenyl]-3-cyano-6-(2-hydroxy-4-methylphenyl)pyridin-2-yl}thiophene-2-carboxamide hydrochloride]
≤ 10 | 203 to 211 | Cl.N#Cc1c(-c2cccc(NC(=O)CCN)c2)cc(-c2ccc(Br)cc2O)nc1NC(=O)c1cccs1 [Example 61, N-{4-[3-(β-alanylamino)phenyl]-6-(4-bromo-2-hydroxyphenyl)-3-cyanopyridin-2-yl}thiophene-2-carboxamide hydrochloride]
≤ 10 | 206 to 212 | Cl.N#Cc1c(-c2cccc(NC(=O)CCN)c2)cc(-c2ccc(Cl)cc2O)nc1NC(=O)c1ccco1 [Example 63, N-{4-[3-(β-alanylamino)phenyl]-6-(4-chloro-2-hydroxyphenyl)-3-cyanopyridin-2-yl}-2-furamide hydrochloride]
≤ 10 | 209 to 216 | Cl.N#Cc1c(-c2cccc(NC(=O)CCN)c2)cc(-c2ccc(C(F)(F)F)cc2O)nc1NC(=O)c1cccs1 [Example 64, N-{4-[3-(β-alanylamino)phenyl]-3-cyano-6-[2-hydroxy-4-(trifluoromethyl)phenyl]pyridin-2-yl}thiophene-2-carboxamide hydrochloride]
≤ 10 | 195 to 200 | Cl.N#Cc1c(-c2cccc(NC(=O)C3(N)CCC3)c2)cc(-c2ccc(Cl)cc2O)nc1NC(=O)c1ccco1 [Example 65, N-[4-(3-{[(1-aminocyclobutyl)carbonyl]amino}phenyl)-6-(4-chloro-2-hydroxyphenyl)-3-cyanopyridin-2-yl]-2-furamide hydrochloride]
≤ 10 | 173 to 174 | Cl.N#Cc1c(-c2cccc(C(=O)NCCCn3ccnc3)c2)cc(-c2ccc(F)cc2O)nc1NC(=O)c1ccco1 [Example 67, N-{3-cyano-6-(4-fluoro-2-hydroxyphenyl)-4-[3-({[3-(1H-imidazole-1-yl)propyl]amino}carbonyl)phenyl]pyridin-2-yl}-2-furamide hydrochloride]
≤ 10 | 269 to 270 | Cl.N#Cc1c(-c2cccc(NC(=O)CCN)c2)cc(-c2ccc(F)cc2O)nc1NC(=O)c1ccco1 [Example 68, N-{4-[3-(β-alanylamino)phenyl]-3-cyano-6-(4-fluoro-2-hydroxyphenyl)pyridin-2-yl}-2-furamide hydrochloride]
≤ 10 | 190 to 196 | Cl.N#Cc1c(-c2cccc(NC(=O)C3(N)CC3)c2)cc(-c2ccc(Cl)cc2O)nc1NC(=O)c1ccco1 [Example 69, N-[4-(3-{[(1-aminocyclopropyl)carbonyl]amino}phenyl)-6-(4-chloro-2-hydroxyphenyl)-3-cyanopyridin-2-yl]-2-furamide hydrochloride]
≤ 10 | 234 to 237 | COc1ccccc1C(=O)Nc1nc(-c2ccc(Cl)cc2O)cc(-c2cccc(C(=O)NCCCn3ccnc3)c2)c1C#N.Cl [Example 70, N-{6-(4-chloro-2-hydroxyphenyl)-3-cyano-4-[3-({[3-(1H-imidazole-1-yl)propyl]amino}carbonyl)phenyl]pyridin-2-yl}-2-methoxybenzamide hydrochloride]
≤ 10 | 210 to 217 | COc1ccccc1C(=O)Nc1nc(-c2ccc(Cl)cc2O)cc(-c2cccc(C(=O)NCC3CCCCN3)c2)c1C#N.Cl (centres unmarked) [Example 71, N-[6-(4-chloro-2-hydroxyphenyl)-3-cyano-4-(3-{[(piperidine-2-ylmethyl)amino]carbonyl}phenyl)pyridin-2-yl]-2-methoxybenzamide hydrochloride]
≤ 10 | 225 to 226 | Cl.N#Cc1c(-c2cccc(C(=O)NC3CCNC3)c2)cc(-c2ccc(F)cc2O)nc1NC(=O)c1ccco1 (centres unmarked) [Example 76, N-(3-cyano-6-(4-fluoro-2-hydroxyphenyl)-4-{3-[(pyrrolidin-3-ylamino)carbonyl]phenyl}pyridin-2-yl)-2-furamide hydrochloride]
≤ 10 | 256 to 257 | CC(C)(CN)CNC(=O)c1cccc(-c2cc(-c3ccc(F)cc3O)nc(NC(=O)c3ccco3)c2C#N)c1.Cl [Example 77, N-[4-(3-{[(3-amino-2,2-dimethylpropyl)amino]carbonyl}phenyl)-3-cyano-6-(4-fluoro-2-hydroxyphenyl)pyridin-2-yl]-2-furamide hydrochloride]
≤ 10 | 195 to 196 | Cl.N#Cc1c(-c2cccc(C(=O)NCCCn3ccnc3)c2)cc(-c2ccc(F)cc2O)nc1NC(=O)c1cccs1 [Example 78, N-{3-cyano-6-(4-fluoro-2-hydroxyphenyl)-4-[3-({[3-(1H-imidazole-1-yl)propyl]amino}carbonyl)phenyl]pyridin-2-yl}thiophene-2-carboxamide hydrochloride]
≤ 10 | 240 to 241 | Cl.N#Cc1c(-c2cccc(C(=O)NC3CCNC3)c2)cc(-c2ccc(F)cc2O)nc1NC(=O)c1cccs1 (centres unmarked) [Example 79, N-(3-cyano-6-(4-fluoro-2-hydroxyphenyl)-4-{3-[(pyrrolidine-3-ylamino)carbonyl]phenyl}pyridin-2-yl)thiophene-2-carboxamide hydrochloride]
≤ 10 | 265 to 268 | CC(C)(CN)CNC(=O)c1cccc(-c2cc(-c3ccc(F)cc3O)nc(NC(=O)c3cccs3)c2C#N)c1.Cl [Example 80, N-[4-(3-{[(3-amino-2,2-dimethylpropyl)amino]carbonyl}phenyl)-3-cyano-6-(4-fluoro-2-hydroxyphenyl)pyridin-2-yl]thiophene-2-carboxamide hydrochloride]
≤ 10 | 228 to 229 | Cl.N#Cc1c(-c2cccc(C(=O)NCCN)c2)cc(-c2ccc(F)cc2O)nc1NC(=O)c1cccs1 [Example 81, N-[4-(3-{[(2-aminoethyl)amino]carbonyl}phenyl)-3-cyano-6-(4-fluoro-2-hydroxyphenyl)pyridin-2-yl]thiophene-2-carboxamide hydrochloride]
≤ 10 | 182 to 184 | Cl.N#Cc1c(-c2cccc(C(=O)NCCCn3ccnc3)c2)cc(-c2ccc(Cl)cc2O)nc1NC(=O)c1ccco1 [Example 83, N-{6-(4-chloro-2-hydroxyphenyl)-3-cyano-4-[3-({[3-(1H-imidazol-1-yl)propyl]amino}carbonyl)phenyl]pyridin-2-yl}-2-furamide hydrochloride]
≤ 10 | 222 to 226 | Cl.N#Cc1c(-c2cccc(C(=O)NCC3CCCCN3)c2)cc(-c2ccc(Cl)cc2O)nc1NC(=O)c1ccco1 (centres unmarked) [Example 84, N-[6-(4-chloro-2-hydroxyphenyl)-3-cyano-4-(3-{[(piperidin-2-ylmethyl)amino]carbonyl}phenyl)pyridin-2-yl]-2-furamide hydrochloride]
